Reference: ChEMBL document CHEMBL1201862, “PubChem BioAssay data set” (2004)
Active and inactive are the calls of the source.

Experiments:
[1] = target: Intestinal-type alkaline phosphatase (Mus musculus, UniProt P24822); experiment: PubChem AID 488874; format: functional
[2] = target: T1, Intestinal-type alkaline phosphatase (Homo sapiens, UniProt P09923); experiment: human intestinal alkaline phosphatase activators, dose response, biochemical, luminescence, uHTS hits (AID 463120); format: functional
[3] = target: T1, Intestinal-type alkaline phosphatase; experiment: human IAP activators, dose response, biochemical, luminescent, uHTS hits, set 2 (AID 488817); format: functional;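 further: potency of activators that raise enzyme activity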
[4] = target: T2, Alkaline phosphatase, tissue-nonspecific isozyme (Homo sapiens, UniProt P05186); experiment: TNAP enzyme activators, dose response, selectivity assay for human IAP activator project, biochemical, TNAP isozyme, human IAP uHTS hits (AID 488886); format: functional;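 further: potency of compounds raising TNAP activity as a selectivity check on IAP activators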
T2 sequence (P05186 whole entry): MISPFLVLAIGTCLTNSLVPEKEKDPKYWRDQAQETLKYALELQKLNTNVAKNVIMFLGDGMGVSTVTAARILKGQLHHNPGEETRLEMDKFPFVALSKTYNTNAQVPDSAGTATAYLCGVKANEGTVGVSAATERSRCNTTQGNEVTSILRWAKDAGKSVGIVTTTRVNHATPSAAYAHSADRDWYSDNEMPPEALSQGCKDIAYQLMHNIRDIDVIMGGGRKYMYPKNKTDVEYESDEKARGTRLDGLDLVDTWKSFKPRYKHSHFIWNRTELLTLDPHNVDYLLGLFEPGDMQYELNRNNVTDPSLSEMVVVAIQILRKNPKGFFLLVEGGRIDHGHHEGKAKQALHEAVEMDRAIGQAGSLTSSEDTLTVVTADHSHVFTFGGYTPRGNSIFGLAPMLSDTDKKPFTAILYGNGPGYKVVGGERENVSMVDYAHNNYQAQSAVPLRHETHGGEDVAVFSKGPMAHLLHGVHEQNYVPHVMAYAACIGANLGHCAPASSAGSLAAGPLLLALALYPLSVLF

[5] = insulin promoter down-regulators in MIN6 cells, imaging, high-content screening, mouse beta cells (AID 1628); format: functional
[6] = cytotoxicity in MIN6 insulinoma cells, dose response, cytotoxicity control, cell-based, mouse insulinoma (AID 2122); format: functional;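 further: confirmatory high-throughput counterscreen run to flag cytotoxic compounds; mouse MIN-6 beta cells carrying an insulin promoter eGFP reporter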
[7] = inhibitors of intracellular T. cruzi replication, confirmation, NIH3T3 host cells, beta-gal luminescence (AID 2044); format: functional, cell-based;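 further: intracellular parasites grown in NIH/3T3 mouse fibroblasts as host cells; luminescent beta-galactosidase reporter signal from transgenic T. cruzi replicating inside host cells; inhibitors lower the luminescence signal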
[8] = cytotoxicity toward NIH3T3 fibroblasts, dose response, counter-screen, cell-based, ATP luminescence, mouse fibroblasts (AID 2010); format: functional;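 further: cells exposed to compound for about 90 hours before reading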
Vero = experiment: cells; format: functional; settings: Chlorocebus sabaeus
[9] = target: T3, DNA repair and recombination protein RAD54-like (Homo sapiens, UniProt Q92698); experiment: inhibitors of human RAD54 branch migration, confirmation, biochemical, fluorescence, cherry-picked samples, dose series (AID 651657); format: functional
T3 sequence (Q92698 whole entry): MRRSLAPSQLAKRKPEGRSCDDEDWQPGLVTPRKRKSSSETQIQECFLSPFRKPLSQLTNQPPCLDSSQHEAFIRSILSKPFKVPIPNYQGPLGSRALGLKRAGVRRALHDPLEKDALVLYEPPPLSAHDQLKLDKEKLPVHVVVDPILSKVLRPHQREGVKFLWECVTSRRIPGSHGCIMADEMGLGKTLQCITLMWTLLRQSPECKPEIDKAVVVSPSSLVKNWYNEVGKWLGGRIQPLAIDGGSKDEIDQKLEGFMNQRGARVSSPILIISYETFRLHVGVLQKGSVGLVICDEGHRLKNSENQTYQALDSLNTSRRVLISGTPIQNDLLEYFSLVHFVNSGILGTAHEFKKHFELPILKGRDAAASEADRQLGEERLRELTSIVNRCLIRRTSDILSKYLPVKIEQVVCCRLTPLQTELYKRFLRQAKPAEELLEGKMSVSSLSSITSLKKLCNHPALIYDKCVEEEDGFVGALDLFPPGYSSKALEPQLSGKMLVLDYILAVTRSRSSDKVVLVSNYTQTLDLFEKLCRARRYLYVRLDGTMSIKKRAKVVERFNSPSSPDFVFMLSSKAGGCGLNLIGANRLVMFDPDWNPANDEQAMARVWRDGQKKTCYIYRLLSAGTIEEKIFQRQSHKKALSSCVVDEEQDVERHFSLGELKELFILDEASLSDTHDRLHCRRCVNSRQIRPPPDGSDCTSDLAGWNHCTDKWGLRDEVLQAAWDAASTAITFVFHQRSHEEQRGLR

Genome polyprotein = Genome polyprotein (Hepatitis C virus, UniProt Q2Q167); experiment: HCV core protein dimerization inhibitors, dose response, biochemical, TR-FRET (AID 2159); design: species or system Hepacivirus hominis;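 further: blocks dimerization of HCV core protein measured by TR-FRET between tagged core106 pairs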
SUMO-activating enzyme [10] = target: T4, SUMO-activating enzyme (Homo sapiens, UniProt Q9UBT2); experiment: SUMOylation inhibitor hit validation, confirmation, SUMOylation inhibitor project, biochemical, AlphaScreen (AID 2018); format: functional
SUMO-activating enzyme [11] = target: T4, SUMO-activating enzyme; experiment: inhibitors of in vitro SUMOylation cascade, primary screen, biochemical, HTRF, uHTS (AID 2006); format: protein-complex assay
[12] = target: Induced myeloid leukemia cell differentiation protein Mcl-1 (Homo sapiens, UniProt Q07820); format: functional
[13] = target: Eukaryotic translation initiation factor 4E (Mus musculus, UniProt P63073); experiment: eIF4E–eIF4G protein interaction inhibitors, dose response, biochemical, TR-FRET (AID 855); format: functional;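 further: potency for disrupting eIF4E binding to eIF4GI seen as loss of FRET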
Jurkat = experiment: SAR Analysis of small molecule inhibitors of […] specific antigen receptor-induced NF-kB activation in a Jurkat cell line using a luminescence assay - Set 3. [Related pubchem assays (depositor defined):AID435022, AID435025, AID465]; format: functional, cell-based; settings: Homo sapiens
HEK293 [14] = experiment: SAR Analysis of small molecule inhibitors of B-cell specific antigen receptor-induced NF-kB activation in a HEK-293T cell line using a luminescence assay - Set 2. [Related pubchem assays (depositor defined):AID435022, AID435025, AID489021]; format: functional, cell-based; settings: Homo sapiens
HEK293 [15] = experiment: cytotoxicity in HEK293T NF-kB-Luc cells, SAR follow-up, cytotoxicity control for NF-kB activator project, cell-based, resazurin fluorescence (AID 493251); format: functional; settings: Homo sapiens
Cytochrome P450 2C19 = Cytochrome P450 2C19 (Homo sapiens, UniProt P33261); experiment: Cytochrome panel assay with activity outcomes. Panel member name: p450-cyp2c19 Compounds with AC50 equal or less than 10 uM are considered active; format: functional; settings: read-out: AC50
Cytochrome P450 1A2 = target: T5, Cytochrome P450 1A2 (Homo sapiens, UniProt P05177);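 further: PubChem cytochrome P450 panel assay, CYP1A2 panel member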
T5 sequence (P05177 whole entry): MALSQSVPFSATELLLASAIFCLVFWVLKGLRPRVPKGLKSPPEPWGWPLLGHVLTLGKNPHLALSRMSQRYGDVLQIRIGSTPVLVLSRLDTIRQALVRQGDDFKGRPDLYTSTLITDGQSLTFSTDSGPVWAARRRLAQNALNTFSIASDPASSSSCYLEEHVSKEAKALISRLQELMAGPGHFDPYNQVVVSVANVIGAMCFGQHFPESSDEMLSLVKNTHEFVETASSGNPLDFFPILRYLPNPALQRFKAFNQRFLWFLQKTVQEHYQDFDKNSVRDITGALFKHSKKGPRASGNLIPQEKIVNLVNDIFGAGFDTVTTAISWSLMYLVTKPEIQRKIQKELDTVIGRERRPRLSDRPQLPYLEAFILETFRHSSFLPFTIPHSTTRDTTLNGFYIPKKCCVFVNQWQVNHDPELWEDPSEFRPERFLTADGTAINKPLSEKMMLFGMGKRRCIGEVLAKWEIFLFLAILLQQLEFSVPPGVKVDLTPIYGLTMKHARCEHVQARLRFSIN

Cytochrome P450 3A4 = Cytochrome P450 3A4 (Homo sapiens, UniProt P08684);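 further: CYP3A4 tested as one member of a cytochrome P450 panel screen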
Cytochrome P450 2C9 = Cytochrome P450 2C9 (Homo sapiens, UniProt P11712)
[16] = target: T6, Carboxy-terminal domain RNA polymerase II polypeptide A small phosphatase 1 (Homo sapiens, UniProt Q9GZU7); experiment: inhibitors of CTDSP1, concentration-response testing, biochemical assay, absorbance-based, actives from ultra-high-throughput screening (AID 540297); format: functional
T6 sequence (Q9GZU7 whole entry): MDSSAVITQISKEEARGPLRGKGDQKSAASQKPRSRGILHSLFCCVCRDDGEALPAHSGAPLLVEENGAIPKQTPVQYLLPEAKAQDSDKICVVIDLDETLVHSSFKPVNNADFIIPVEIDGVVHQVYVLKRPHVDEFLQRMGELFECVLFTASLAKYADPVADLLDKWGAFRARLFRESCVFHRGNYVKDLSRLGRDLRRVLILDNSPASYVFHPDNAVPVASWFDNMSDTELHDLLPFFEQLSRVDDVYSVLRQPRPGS

[17] = target: T7, Tyrosine-protein phosphatase non-receptor type 11 (Homo sapiens, UniProt Q06124); experiment: SHP2 phosphatase inhibition, dose response, selectivity assay for STEP inhibitor project, biochemical (AID 602367); format: functional; settings: read-out: IC50_Mean
T7 sequence (Q06124 whole entry): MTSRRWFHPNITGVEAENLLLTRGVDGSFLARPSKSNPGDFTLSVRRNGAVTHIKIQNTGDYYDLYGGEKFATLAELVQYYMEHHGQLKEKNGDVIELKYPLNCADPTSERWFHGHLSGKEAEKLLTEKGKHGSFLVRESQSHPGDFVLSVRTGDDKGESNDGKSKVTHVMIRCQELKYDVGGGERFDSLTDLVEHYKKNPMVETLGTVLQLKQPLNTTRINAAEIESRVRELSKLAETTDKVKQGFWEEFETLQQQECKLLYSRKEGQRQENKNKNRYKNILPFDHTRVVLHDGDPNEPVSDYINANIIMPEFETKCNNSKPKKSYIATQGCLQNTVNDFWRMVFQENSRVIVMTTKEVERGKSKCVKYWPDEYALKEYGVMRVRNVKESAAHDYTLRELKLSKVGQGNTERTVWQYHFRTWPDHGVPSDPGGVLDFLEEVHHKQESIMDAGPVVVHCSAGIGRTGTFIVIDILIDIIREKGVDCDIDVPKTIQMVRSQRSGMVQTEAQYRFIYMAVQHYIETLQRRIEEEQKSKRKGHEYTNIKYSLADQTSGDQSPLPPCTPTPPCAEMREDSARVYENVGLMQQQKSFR

[18] = target: T8, Tyrosine-protein phosphatase non-receptor type 5 (Homo sapiens, UniProt P54829); experiment: STEP phosphatase inhibitors, confirmation, biochemical, fluorescence intensity, uHTS hits (AID 602372); format: functional; settings: read-out: IC50_Mean
T8 sequence (P54829 whole entry): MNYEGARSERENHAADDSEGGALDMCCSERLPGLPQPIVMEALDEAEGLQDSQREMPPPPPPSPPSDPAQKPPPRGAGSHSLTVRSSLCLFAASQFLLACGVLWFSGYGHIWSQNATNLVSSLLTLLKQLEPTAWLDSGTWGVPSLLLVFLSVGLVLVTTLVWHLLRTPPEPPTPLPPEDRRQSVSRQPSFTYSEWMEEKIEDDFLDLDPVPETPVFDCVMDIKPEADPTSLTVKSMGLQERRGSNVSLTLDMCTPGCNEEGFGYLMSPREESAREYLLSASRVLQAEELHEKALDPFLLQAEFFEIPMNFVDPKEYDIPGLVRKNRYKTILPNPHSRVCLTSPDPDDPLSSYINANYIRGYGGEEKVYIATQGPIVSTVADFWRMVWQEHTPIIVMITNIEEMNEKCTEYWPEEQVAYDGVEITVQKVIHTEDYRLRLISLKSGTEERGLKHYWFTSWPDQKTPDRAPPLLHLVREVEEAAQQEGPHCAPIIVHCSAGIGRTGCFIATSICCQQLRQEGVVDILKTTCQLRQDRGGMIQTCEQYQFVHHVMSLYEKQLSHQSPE

[19] = target: Dual specificity protein phosphatase 3 (Homo sapiens, UniProt P51452); experiment: VHR phosphatase inhibition, dose response, selectivity assay for STEP inhibitor project, biochemical (AID 602374); format: functional; settings: read-out: IC50_Mean
[20] = target: T9, Low molecular weight phosphotyrosine protein phosphatase (Homo sapiens, UniProt P24666); format: functional; settings: read-out: IC50_Mean;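 further: Dose-response confirmation assay measuring inhibition of LMPTP enzyme activity by fluorescence intensity read-out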
T9 sequence (P24666 whole entry): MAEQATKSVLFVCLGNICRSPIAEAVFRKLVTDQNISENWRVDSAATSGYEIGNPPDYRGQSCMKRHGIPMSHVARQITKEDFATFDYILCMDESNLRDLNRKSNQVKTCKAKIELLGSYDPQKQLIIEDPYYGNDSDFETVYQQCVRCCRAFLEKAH

T4 sequence (Q9UBE0 whole entry): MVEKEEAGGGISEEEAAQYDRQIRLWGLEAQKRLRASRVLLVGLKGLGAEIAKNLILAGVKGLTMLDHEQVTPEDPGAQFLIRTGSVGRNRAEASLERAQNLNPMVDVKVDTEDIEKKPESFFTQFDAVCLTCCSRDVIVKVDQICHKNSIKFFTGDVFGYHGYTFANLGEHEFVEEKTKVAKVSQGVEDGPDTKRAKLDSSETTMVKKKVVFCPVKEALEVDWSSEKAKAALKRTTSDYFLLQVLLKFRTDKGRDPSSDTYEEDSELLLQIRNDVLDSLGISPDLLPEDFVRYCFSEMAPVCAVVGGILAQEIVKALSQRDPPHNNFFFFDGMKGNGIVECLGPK
T4 sequence (Q9UBT2 whole entry): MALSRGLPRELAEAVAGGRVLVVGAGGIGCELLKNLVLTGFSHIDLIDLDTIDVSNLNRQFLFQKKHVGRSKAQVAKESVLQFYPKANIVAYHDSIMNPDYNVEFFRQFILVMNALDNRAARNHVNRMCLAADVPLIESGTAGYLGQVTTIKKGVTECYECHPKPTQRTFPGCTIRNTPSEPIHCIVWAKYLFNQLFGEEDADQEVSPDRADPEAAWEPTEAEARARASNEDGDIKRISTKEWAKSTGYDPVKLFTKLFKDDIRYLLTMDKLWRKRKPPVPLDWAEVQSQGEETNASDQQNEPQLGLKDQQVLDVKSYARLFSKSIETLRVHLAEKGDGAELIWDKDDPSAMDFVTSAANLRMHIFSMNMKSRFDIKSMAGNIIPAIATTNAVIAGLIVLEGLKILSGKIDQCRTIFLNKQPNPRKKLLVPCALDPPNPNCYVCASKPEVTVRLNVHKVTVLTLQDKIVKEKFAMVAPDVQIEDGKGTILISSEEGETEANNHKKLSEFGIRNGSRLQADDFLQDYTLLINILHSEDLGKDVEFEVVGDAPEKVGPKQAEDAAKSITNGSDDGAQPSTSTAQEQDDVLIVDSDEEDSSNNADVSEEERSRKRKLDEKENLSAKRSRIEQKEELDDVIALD
T1 sequence (P09923 whole entry): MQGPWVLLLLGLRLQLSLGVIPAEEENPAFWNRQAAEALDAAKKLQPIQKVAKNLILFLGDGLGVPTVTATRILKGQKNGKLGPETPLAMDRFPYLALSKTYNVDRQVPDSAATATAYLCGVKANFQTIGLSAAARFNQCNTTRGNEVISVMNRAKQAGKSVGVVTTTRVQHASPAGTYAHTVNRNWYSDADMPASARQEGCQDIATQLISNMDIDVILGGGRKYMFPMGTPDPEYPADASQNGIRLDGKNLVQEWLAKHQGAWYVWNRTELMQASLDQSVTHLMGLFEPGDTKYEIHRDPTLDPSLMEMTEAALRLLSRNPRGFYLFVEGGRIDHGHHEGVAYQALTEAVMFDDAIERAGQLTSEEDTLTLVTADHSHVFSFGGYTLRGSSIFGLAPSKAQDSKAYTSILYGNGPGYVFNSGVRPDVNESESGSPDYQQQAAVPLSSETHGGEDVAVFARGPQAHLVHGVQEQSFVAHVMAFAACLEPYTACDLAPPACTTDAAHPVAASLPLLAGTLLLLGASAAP
Sequence of Cytochrome P450 3A4 (P08684 whole entry): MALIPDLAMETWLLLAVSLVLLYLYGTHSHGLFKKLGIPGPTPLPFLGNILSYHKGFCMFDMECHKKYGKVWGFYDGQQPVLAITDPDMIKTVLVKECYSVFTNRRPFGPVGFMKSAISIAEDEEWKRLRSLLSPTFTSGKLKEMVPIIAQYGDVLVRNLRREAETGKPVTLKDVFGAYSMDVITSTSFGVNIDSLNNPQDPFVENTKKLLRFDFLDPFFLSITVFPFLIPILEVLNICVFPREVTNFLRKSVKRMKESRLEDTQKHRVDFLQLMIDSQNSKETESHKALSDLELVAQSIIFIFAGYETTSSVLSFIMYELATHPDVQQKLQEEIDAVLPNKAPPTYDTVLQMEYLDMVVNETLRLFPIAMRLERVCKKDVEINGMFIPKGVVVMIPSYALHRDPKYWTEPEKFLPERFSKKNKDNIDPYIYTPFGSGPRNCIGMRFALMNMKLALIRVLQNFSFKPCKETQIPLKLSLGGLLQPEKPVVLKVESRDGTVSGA
Sequence of Intestinal-type alkaline phosphatase (Mus musculus, UniProt P24822) (P24822 whole entry): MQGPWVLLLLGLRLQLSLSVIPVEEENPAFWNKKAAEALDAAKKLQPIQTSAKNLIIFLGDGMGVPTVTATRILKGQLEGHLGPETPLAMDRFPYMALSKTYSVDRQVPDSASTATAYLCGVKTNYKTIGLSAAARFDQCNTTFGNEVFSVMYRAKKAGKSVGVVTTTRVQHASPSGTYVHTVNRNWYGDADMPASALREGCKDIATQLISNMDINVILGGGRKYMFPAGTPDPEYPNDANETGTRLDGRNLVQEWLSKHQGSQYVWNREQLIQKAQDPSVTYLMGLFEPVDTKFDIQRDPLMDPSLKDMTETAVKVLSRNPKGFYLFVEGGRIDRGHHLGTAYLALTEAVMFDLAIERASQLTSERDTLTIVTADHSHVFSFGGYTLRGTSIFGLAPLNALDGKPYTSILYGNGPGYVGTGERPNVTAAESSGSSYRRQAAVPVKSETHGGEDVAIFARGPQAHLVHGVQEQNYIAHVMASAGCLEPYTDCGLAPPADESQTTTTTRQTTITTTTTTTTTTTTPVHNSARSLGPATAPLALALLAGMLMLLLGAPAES
Sequence of Induced myeloid leukemia cell differentiation protein Mcl-1 (Q07820 whole entry): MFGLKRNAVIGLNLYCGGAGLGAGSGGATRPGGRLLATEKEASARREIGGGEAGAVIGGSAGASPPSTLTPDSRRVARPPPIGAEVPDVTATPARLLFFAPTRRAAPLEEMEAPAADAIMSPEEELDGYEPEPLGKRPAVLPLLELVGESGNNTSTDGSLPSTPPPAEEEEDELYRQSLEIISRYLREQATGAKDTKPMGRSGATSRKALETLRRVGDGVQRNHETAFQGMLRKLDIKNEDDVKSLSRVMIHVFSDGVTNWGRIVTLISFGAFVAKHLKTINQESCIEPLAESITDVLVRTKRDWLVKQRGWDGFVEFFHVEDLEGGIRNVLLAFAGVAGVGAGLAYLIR
Sequence of Cytochrome P450 2C9 (P11712 whole entry, the tested form may be a part): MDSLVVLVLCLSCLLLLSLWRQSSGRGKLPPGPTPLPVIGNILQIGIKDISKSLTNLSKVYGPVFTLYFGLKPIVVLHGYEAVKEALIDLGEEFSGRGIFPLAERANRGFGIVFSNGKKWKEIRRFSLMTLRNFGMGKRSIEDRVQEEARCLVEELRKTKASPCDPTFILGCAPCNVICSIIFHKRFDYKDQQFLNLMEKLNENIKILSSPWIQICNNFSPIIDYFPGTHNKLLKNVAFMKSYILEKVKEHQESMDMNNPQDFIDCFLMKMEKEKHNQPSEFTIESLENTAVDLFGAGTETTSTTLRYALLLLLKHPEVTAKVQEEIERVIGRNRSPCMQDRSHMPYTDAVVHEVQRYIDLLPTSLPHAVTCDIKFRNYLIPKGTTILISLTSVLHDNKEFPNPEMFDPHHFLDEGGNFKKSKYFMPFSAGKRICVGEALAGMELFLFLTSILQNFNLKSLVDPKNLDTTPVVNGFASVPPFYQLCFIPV
Sequence of Cytochrome P450 2C19 (P33261 whole entry): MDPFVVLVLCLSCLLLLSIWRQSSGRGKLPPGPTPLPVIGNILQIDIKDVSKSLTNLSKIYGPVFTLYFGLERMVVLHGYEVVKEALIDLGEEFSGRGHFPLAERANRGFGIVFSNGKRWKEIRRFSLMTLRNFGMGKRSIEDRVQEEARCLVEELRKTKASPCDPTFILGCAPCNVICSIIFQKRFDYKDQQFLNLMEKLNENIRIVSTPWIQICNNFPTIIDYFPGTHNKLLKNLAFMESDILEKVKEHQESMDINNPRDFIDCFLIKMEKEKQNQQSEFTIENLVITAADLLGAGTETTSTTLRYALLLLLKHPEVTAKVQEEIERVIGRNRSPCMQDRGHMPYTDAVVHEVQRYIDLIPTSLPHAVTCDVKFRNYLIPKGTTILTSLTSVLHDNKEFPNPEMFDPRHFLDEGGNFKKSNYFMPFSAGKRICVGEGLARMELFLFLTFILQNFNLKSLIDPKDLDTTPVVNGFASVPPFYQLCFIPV
Sequence of Eukaryotic translation initiation factor 4E (P63073 whole entry): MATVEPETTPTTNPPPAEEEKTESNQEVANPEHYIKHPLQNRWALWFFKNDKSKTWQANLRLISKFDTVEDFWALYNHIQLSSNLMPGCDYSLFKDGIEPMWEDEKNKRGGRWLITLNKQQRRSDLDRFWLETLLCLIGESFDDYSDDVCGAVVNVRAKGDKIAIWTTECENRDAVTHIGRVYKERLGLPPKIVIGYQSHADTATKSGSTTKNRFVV
Sequence of Dual specificity protein phosphatase 3 (P51452 whole entry): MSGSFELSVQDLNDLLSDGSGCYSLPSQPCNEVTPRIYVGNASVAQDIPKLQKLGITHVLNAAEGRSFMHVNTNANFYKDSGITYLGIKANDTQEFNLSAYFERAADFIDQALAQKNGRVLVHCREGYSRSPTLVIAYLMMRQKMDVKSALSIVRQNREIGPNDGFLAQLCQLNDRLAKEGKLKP
Sequence of Genome polyprotein (Q2Q167 whole entry): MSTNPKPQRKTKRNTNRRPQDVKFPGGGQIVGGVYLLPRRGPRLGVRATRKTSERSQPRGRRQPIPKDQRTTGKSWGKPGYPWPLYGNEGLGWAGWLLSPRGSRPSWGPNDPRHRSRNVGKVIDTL

OC(c1nc2cc(F)ccc2[nH]1)C(O)c1nc2cc(F)ccc2[nH]1 (centres undefined)
IC50 [1]: 58.5 µM (active) | EC50 [2]: 4.97 µM (active) | EC50 [3]: 9.13 µM (active) | EC50 [4]: 9.85 µM (active)

Cc1cc(N2CCN(C)CC2)nc2ccc(NC(S)=NCCN3CCc4ccccc4C3)cc12
IC50 [5]: 4.64 µM (active) | IC50 [6]: 4.81 µM (active) | EC50 [7]: 0.683 µM (active) | EC50 [8]: > 60 µM (not active) | CC50 (Vero): 15.9 µM (active) | AC50 [9]: 20.4 µM (active)

CC(=O)c1sc2nc(CSc3nnnn3-c3ccccc3)[nH]c(=O)c2c1C
IC50 (Genome polyprotein): > 49.8 µM (not active) | IC50 (SUMO-activating enzyme [10]): 6.5 µM (active) | IC50 (SUMO-activating enzyme [11]): 27.9 µM (active) | IC50 [12]: 1.71 µM (active) | IC50 [13]: 50 µM (inactive)

CC(C)Oc1ccc(CCC(=O)NNC(=S)NCc2ccccc2)cc1
IC50 [1]: 60.3 µM (active) | EC50 [2]: 18.8 µM (active) | EC50 [3]: 21.8 µM (active) | EC50 [4]: 21.1 µM (active)

CCOc1ccc(-c2nc(CSCC(=O)NC(C)CC)c(C)o2)cc1 (centres undefined)
IC50 (Jurkat): > 80 µM (inactive) | IC50 (HEK293 [14]): 35.7 µM (inactive) | IC50 (HEK293 [15]): 74.6 µM (inactive)

O=C(c1ccccc1)c1c[nH]c(C(=O)NCCCN2CCOCC2)c1
AC50 (Cytochrome P450 2C19): 0.0355 µM (inconclusive) | AC50 (Cytochrome P450 1A2): 25.1 µM (inconclusive) | AC50 (Cytochrome P450 3A4): inconclusive

COc1ccc2c(=O)c(-c3ccccc3)c(C)oc2c1
AC50 (Cytochrome P450 2C9): 10 µM (inconclusive) | AC50 (Cytochrome P450 3A4): inconclusive

N=C1S/C(=C\c2ccc(O)cc2)C(=O)N1c1ccc(F)cc1
IC50 (SUMO-activating enzyme [10]): 4.87 µM (active) | IC50 (SUMO-activating enzyme [11]): 23.9 µM (active) | IC50 [16]: 5.84 µM (active) | IC50 [17]: 2.2 µM (active) | IC50 [18]: 14.1 µM (active) | IC50 [19]: 2.29 µM (active) | IC50 [20]: 32.9 µM (inactive)
